Measurements as given in patent US6716809B1, “Mage-A3 peptides presented by HLA class molecules” (priority 1997, dated 2004).

B1: MAGE-A3: MAGE-A3 protein; recombinant His-MAGE-A3 produced in E. coli, or expressed from MFG MAGE-A3 retrovirus in Example 6 (protein, listed as Homo sapiens)
chain: MPLEQRSQHCKPEEGLEARGEALGLVGAQAPATEEQEAASSSSTLVEVTLGEVPAAESPDPPQSPQGASSLPTTMNYPLWSQSYEDSSNQEEEGPSTFPDLESEFQAALSRKVAELVHFLLLKYRAREPVTKAEMLGSVVGNWQYFFPVIFSKASSSLQLVFGIELMEVDPIGHLYIFATCLGLSYDGLLGDNQIMPKAGLLIIVLAIIAREGDCAPEEKIWEELSVLEVFEGREDSILGDPKKLLTQHFVQENYLEYRQVPGSDPACYEFLWGPRALVETSYVKVLHHMVKISGGPHISYPPLHEWVLREGEE
modifications: His tag

What was measured:
[1] = system: CD4+ clone 436/B6.37 (B6/37); assay: IFN-γ/TNF production by CD4+ clone B6/37 (clone 37) stimulated with peptide- or protein-pulsed EBV-B cells; type: cell-based, human
Procedure, shortened: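 CD4+ clone (2,500 cells) cocultured 18-20 h with 5,000 EBV-B cells pre-pulsed 2 h at 37 °C with MAGE-A3 peptides or 18-20 h with 20 μg/ml His-MAGE-A3 protein; ovalbumin as negative control. IFN-γ measured by ELISA, TNF by WEHI 164 clone 13 cytotoxicity (MTT); triplicates.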

clone 37 = assay: Presentation of exogenous MAGE-A3 by HLA-DR13 dendritic cells to clone 37 (IFN-γ ELISA); type: cell-based, human; conditions: 10^4 HLA-DR13 dendritic cells in 100 μl pre-incubated 24 h; 2500 clone 37 cells, 20 h
Description: Clone 37 was obtained with autologous dendritic cells heavily loaded with MAGE-A3 protein. To determine the ability of dendritic cells that capture a quantity of MAGE-A3 protein released by a few MAGE-A3^+ cells to stimulate CD4^+ T cells, HLA-DR13 dendritic cells were incubated for 24h with decreasing concentrations of MAGE-A3 as depicted in (FIG. 9A). Stimulation of clone 37 was tested by washing the cells, distributing the cells in round-bottomed microwells, and adding 2500 clone 37 cells. IFN-γ secretion was measured by ELISA after 20h of coculture. Experiments were performed in triplicate. Half maximum production of IFN-γ was obtained when 10^4 dendritic cells in a volume of 100 μl were pre-incubated with 30 ng of MAGE-A3, the quantity of MAGE-A3 present in around 2×10^4 MZ2-MEL.43 tumor cells.

Molecule	activation of clone B6/37 by 16 amino acid peptides [1]	stimulation of clone 37 ([1]; same conditions (peptide 10 ng/ml; HLA-DR13 EBV-B cells))	quantity of MAGE-A3 giving half maximum production of IFN-γ (clone 37)
FLLLKYRAREPVTKAE (listed as Homo sapiens) [MAGE-A3119-134]	unable to activate	not stimulated	
B1			30 ng
